# In the OligoGym collection:
# Oligonucleotides are given in HELM: sugar(base)linkage, 5' to 3'; d 2'-deoxyribose, r ribose, m 2'-O-methylribose, p phosphate. ss, as = sense and antisense strand
# Target: Cacnb1 (rat)
# Test: reporter assay of Huesken 2005
# Conditions: siRNA
# Note: test concentration or dose not given here.
row,Substance,normalised inhibition (eCFP-eYFP dual reporter) [%]
1,RNA1{r(G)p.r(U)p.r(A)p.r(C)p.r(U)p.r(G)p.r(C)p.r(A)p.r(G)p.r(A)p.r(G)p.r(G)p.r(C)p.r(U)p.r(C)p.r(A)p.r(U)p.r(C)p.r(A)p.d(T)p.d(T)}|RNA2{r(U)p.r(G)p.r(A)p.r(U)p.r(G)p.r(A)p.r(G)p.r(C)p.r(C)p.r(U)p.r(C)p.r(U)p.r(G)p.r(C)p.r(A)p.r(G)p.r(U)p.r(A)p.r(C)p.d(C)p.d(T)}$$$RNA1{StrandType:ss}|RNA2{StrandType:as}$,73.6
2,RNA1{r(C)p.r(G)p.r(A)p.r(G)p.r(C)p.r(G)p.r(C)p.r(U)p.r(C)p.r(C)p.r(A)p.r(A)p.r(C)p.r(A)p.r(C)p.r(U)p.r(C)p.r(G)p.r(C)p.d(T)p.d(T)}|RNA2{r(G)p.r(C)p.r(G)p.r(A)p.r(G)p.r(U)p.r(G)p.r(U)p.r(U)p.r(G)p.r(G)p.r(A)p.r(G)p.r(C)p.r(G)p.r(C)p.r(U)p.r(C)p.r(G)p.d(A)p.d(T)}$$$RNA1{StrandType:ss}|RNA2{StrandType:as}$,15.2
3,RNA1{r(U)p.r(C)p.r(G)p.r(G)p.r(G)p.r(A)p.r(G)p.r(G)p.r(C)p.r(U)p.r(G)p.r(G)p.r(U)p.r(G)p.r(A)p.r(A)p.r(G)p.r(G)p.r(A)p.d(T)p.d(T)}|RNA2{r(U)p.r(C)p.r(C)p.r(U)p.r(U)p.r(C)p.r(A)p.r(C)p.r(C)p.r(A)p.r(G)p.r(C)p.r(C)p.r(U)p.r(C)p.r(C)p.r(C)p.r(G)p.r(A)p.d(T)p.d(C)}$$$RNA1{StrandType:ss}|RNA2{StrandType:as}$,73.7
4,RNA1{r(G)p.r(G)p.r(C)p.r(U)p.r(C)p.r(C)p.r(U)p.r(G)p.r(G)p.r(G)p.r(A)p.r(A)p.r(G)p.r(A)p.r(G)p.r(G)p.r(A)p.r(G)p.r(G)p.d(T)p.d(T)}|RNA2{r(C)p.r(C)p.r(U)p.r(C)p.r(C)p.r(U)p.r(C)p.r(U)p.r(U)p.r(C)p.r(C)p.r(C)p.r(A)p.r(G)p.r(G)p.r(A)p.r(G)p.r(C)p.r(C)p.d(C)p.d(T)}$$$RNA1{StrandType:ss}|RNA2{StrandType:as}$,46.7
5,RNA1{r(C)p.r(C)p.r(U)p.r(U)p.r(A)p.r(G)p.r(C)p.r(C)p.r(C)p.r(A)p.r(G)p.r(C)p.r(U)p.r(C)p.r(G)p.r(A)p.r(G)p.r(A)p.r(A)p.d(T)p.d(T)}|RNA2{r(U)p.r(U)p.r(C)p.r(U)p.r(C)p.r(G)p.r(A)p.r(G)p.r(C)p.r(U)p.r(G)p.r(G)p.r(G)p.r(C)p.r(U)p.r(A)p.r(A)p.r(G)p.r(G)p.d(C)p.d(C)}$$$RNA1{StrandType:ss}|RNA2{StrandType:as}$,76.8
6,RNA1{r(G)p.r(C)p.r(C)p.r(C)p.r(A)p.r(C)p.r(A)p.r(G)p.r(G)p.r(G)p.r(C)p.r(A)p.r(A)p.r(A)p.r(U)p.r(A)p.r(C)p.r(A)p.r(G)p.d(T)p.d(T)}|RNA2{r(C)p.r(U)p.r(G)p.r(U)p.r(A)p.r(U)p.r(U)p.r(U)p.r(G)p.r(C)p.r(C)p.r(C)p.r(U)p.r(G)p.r(U)p.r(G)p.r(G)p.r(G)p.r(C)p.d(T)p.d(G)}$$$RNA1{StrandType:ss}|RNA2{StrandType:as}$,75.8
7,RNA1{r(U)p.r(G)p.r(G)p.r(A)p.r(C)p.r(A)p.r(G)p.r(C)p.r(C)p.r(U)p.r(U)p.r(C)p.r(G)p.r(C)p.r(C)p.r(U)p.r(G)p.r(C)p.r(U)p.d(T)p.d(T)}|RNA2{r(A)p.r(G)p.r(C)p.r(A)p.r(G)p.r(G)p.r(C)p.r(G)p.r(A)p.r(A)p.r(G)p.r(G)p.r(C)p.r(U)p.r(G)p.r(U)p.r(C)p.r(C)p.r(A)p.d(G)p.d(T)}$$$RNA1{StrandType:ss}|RNA2{StrandType:as}$,39.5
8,RNA1{r(G)p.r(C)p.r(A)p.r(G)p.r(A)p.r(G)p.r(U)p.r(C)p.r(C)p.r(U)p.r(A)p.r(C)p.r(A)p.r(C)p.r(G)p.r(A)p.r(G)p.r(C)p.r(C)p.d(T)p.d(T)}|RNA2{r(G)p.r(G)p.r(C)p.r(U)p.r(C)p.r(G)p.r(U)p.r(G)p.r(U)p.r(A)p.r(G)p.r(G)p.r(A)p.r(C)p.r(U)p.r(C)p.r(U)p.r(G)p.r(C)p.d(T)p.d(G)}$$$RNA1{StrandType:ss}|RNA2{StrandType:as}$,79.4
9,RNA1{r(A)p.r(G)p.r(C)p.r(U)p.r(C)p.r(U)p.r(C)p.r(U)p.r(A)p.r(A)p.r(A)p.r(A)p.r(C)p.r(C)p.r(U)p.r(C)p.r(G)p.r(C)p.r(U)p.d(T)p.d(T)}|RNA2{r(A)p.r(G)p.r(C)p.r(G)p.r(A)p.r(G)p.r(G)p.r(U)p.r(U)p.r(U)p.r(U)p.r(A)p.r(G)p.r(A)p.r(G)p.r(A)p.r(G)p.r(C)p.r(U)p.d(G)p.d(G)}$$$RNA1{StrandType:ss}|RNA2{StrandType:as}$,56.1
10,RNA1{r(A)p.r(G)p.r(A)p.r(A)p.r(U)p.r(G)p.r(A)p.r(G)p.r(C)p.r(U)p.r(G)p.r(G)p.r(A)p.r(G)p.r(G)p.r(G)p.r(C)p.r(U)p.r(G)p.d(T)p.d(T)}|RNA2{r(C)p.r(A)p.r(G)p.r(C)p.r(C)p.r(C)p.r(U)p.r(C)p.r(C)p.r(A)p.r(G)p.r(C)p.r(U)p.r(C)p.r(A)p.r(U)p.r(U)p.r(C)p.r(U)p.d(T)p.d(A)}$$$RNA1{StrandType:ss}|RNA2{StrandType:as}$,75.3
11,RNA1{r(G)p.r(U)p.r(G)p.r(C)p.r(G)p.r(G)p.r(A)p.r(G)p.r(G)p.r(G)p.r(U)p.r(G)p.r(G)p.r(U)p.r(G)p.r(G)p.r(G)p.r(C)p.r(C)p.d(T)p.d(T)}|RNA2{r(G)p.r(G)p.r(C)p.r(C)p.r(C)p.r(A)p.r(C)p.r(C)p.r(A)p.r(C)p.r(C)p.r(C)p.r(U)p.r(C)p.r(C)p.r(G)p.r(C)p.r(A)p.r(C)p.d(A)p.d(G)}$$$RNA1{StrandType:ss}|RNA2{StrandType:as}$,52.4
12,RNA1{r(U)p.r(A)p.r(C)p.r(A)p.r(U)p.r(C)p.r(C)p.r(G)p.r(C)p.r(U)p.r(G)p.r(A)p.r(G)p.r(A)p.r(G)p.r(G)p.r(C)p.r(A)p.r(G)p.d(T)p.d(T)}|RNA2{r(C)p.r(U)p.r(G)p.r(C)p.r(C)p.r(U)p.r(C)p.r(U)p.r(C)p.r(A)p.r(G)p.r(C)p.r(G)p.r(G)p.r(A)p.r(U)p.r(G)p.r(U)p.r(A)p.d(G)p.d(A)}$$$RNA1{StrandType:ss}|RNA2{StrandType:as}$,39.5
13,RNA1{r(C)p.r(G)p.r(U)p.r(C)p.r(A)p.r(G)p.r(A)p.r(C)p.r(U)p.r(C)p.r(C)p.r(G)p.r(A)p.r(C)p.r(G)p.r(U)p.r(G)p.r(U)p.r(C)p.d(T)p.d(T)}|RNA2{r(G)p.r(A)p.r(C)p.r(A)p.r(C)p.r(G)p.r(U)p.r(C)p.r(G)p.r(G)p.r(A)p.r(G)p.r(U)p.r(C)p.r(U)p.r(G)p.r(A)p.r(C)p.r(G)p.d(G)p.d(C)}$$$RNA1{StrandType:ss}|RNA2{StrandType:as}$,77
14,RNA1{r(U)p.r(C)p.r(C)p.r(U)p.r(G)p.r(C)p.r(A)p.r(C)p.r(A)p.r(U)p.r(C)p.r(A)p.r(A)p.r(G)p.r(G)p.r(A)p.r(G)p.r(A)p.r(A)p.d(T)p.d(T)}|RNA2{r(U)p.r(U)p.r(C)p.r(U)p.r(C)p.r(C)p.r(U)p.r(U)p.r(G)p.r(A)p.r(U)p.r(G)p.r(U)p.r(G)p.r(C)p.r(A)p.r(G)p.r(G)p.r(A)p.d(A)p.d(G)}$$$RNA1{StrandType:ss}|RNA2{StrandType:as}$,94
15,RNA1{r(G)p.r(A)p.r(G)p.r(A)p.r(U)p.r(C)p.r(C)p.r(C)p.r(U)p.r(A)p.r(U)p.r(G)p.r(G)p.r(A)p.r(G)p.r(G)p.r(U)p.r(C)p.r(U)p.d(T)p.d(T)}|RNA2{r(A)p.r(G)p.r(A)p.r(C)p.r(C)p.r(U)p.r(C)p.r(C)p.r(A)p.r(U)p.r(A)p.r(G)p.r(G)p.r(G)p.r(A)p.r(U)p.r(C)p.r(U)p.r(C)p.d(T)p.d(T)}$$$RNA1{StrandType:ss}|RNA2{StrandType:as}$,71.5
16,RNA1{r(A)p.r(A)p.r(G)p.r(G)p.r(G)p.r(C)p.r(G)p.r(G)p.r(U)p.r(U)p.r(C)p.r(A)p.r(A)p.r(A)p.r(A)p.r(G)p.r(G)p.r(U)p.r(C)p.d(T)p.d(T)}|RNA2{r(G)p.r(A)p.r(C)p.r(C)p.r(U)p.r(U)p.r(U)p.r(U)p.r(G)p.r(A)p.r(A)p.r(C)p.r(C)p.r(G)p.r(C)p.r(C)p.r(C)p.r(U)p.r(U)p.d(T)p.d(C)}$$$RNA1{StrandType:ss}|RNA2{StrandType:as}$,57.7
17,RNA1{r(U)p.r(U)p.r(U)p.r(C)p.r(A)p.r(U)p.r(C)p.r(C)p.r(C)p.r(C)p.r(A)p.r(G)p.r(C)p.r(C)p.r(C)p.r(U)p.r(G)p.r(U)p.r(C)p.d(T)p.d(T)}|RNA2{r(G)p.r(A)p.r(C)p.r(A)p.r(G)p.r(G)p.r(G)p.r(C)p.r(U)p.r(G)p.r(G)p.r(G)p.r(G)p.r(A)p.r(U)p.r(G)p.r(A)p.r(A)p.r(A)p.d(C)p.d(C)}$$$RNA1{StrandType:ss}|RNA2{StrandType:as}$,16.4
18,RNA1{r(G)p.r(U)p.r(G)p.r(C)p.r(C)p.r(A)p.r(A)p.r(A)p.r(C)p.r(A)p.r(G)p.r(A)p.r(A)p.r(G)p.r(C)p.r(A)p.r(G)p.r(A)p.r(A)p.d(T)p.d(T)}|RNA2{r(U)p.r(U)p.r(C)p.r(U)p.r(G)p.r(C)p.r(U)p.r(U)p.r(C)p.r(U)p.r(G)p.r(U)p.r(U)p.r(U)p.r(G)p.r(G)p.r(C)p.r(A)p.r(C)p.d(T)p.d(G)}$$$RNA1{StrandType:ss}|RNA2{StrandType:as}$,82.1
19,RNA1{r(C)p.r(C)p.r(U)p.r(G)p.r(G)p.r(A)p.r(C)p.r(G)p.r(A)p.r(G)p.r(A)p.r(A)p.r(C)p.r(C)p.r(A)p.r(A)p.r(U)p.r(U)p.r(G)p.d(T)p.d(T)}|RNA2{r(C)p.r(A)p.r(A)p.r(U)p.r(U)p.r(G)p.r(G)p.r(U)p.r(U)p.r(C)p.r(U)p.r(C)p.r(G)p.r(U)p.r(C)p.r(C)p.r(A)p.r(G)p.r(G)p.d(A)p.d(T)}$$$RNA1{StrandType:ss}|RNA2{StrandType:as}$,80.2
20,RNA1{r(G)p.r(A)p.r(A)p.r(C)p.r(C)p.r(G)p.r(C)p.r(A)p.r(C)p.r(C)p.r(A)p.r(U)p.r(G)p.r(G)p.r(C)p.r(U)p.r(A)p.r(C)p.r(C)p.d(T)p.d(T)}|RNA2{r(G)p.r(G)p.r(U)p.r(A)p.r(G)p.r(C)p.r(C)p.r(A)p.r(U)p.r(G)p.r(G)p.r(U)p.r(G)p.r(C)p.r(G)p.r(G)p.r(U)p.r(U)p.r(C)p.d(A)p.d(G)}$$$RNA1{StrandType:ss}|RNA2{StrandType:as}$,49
